Source: patent US20160102074A1, “SUBSTITUTED AMIDE COMPOUNDS” (PFIZER INC., priority 2014, published 2016)

Assay: Human intestinal S9 fraction in vitro stability assay (HInt)
Format: in vitro ADME
Details: human intestinal S9 0.1 mg/mL, 1 μM test compound, pH 7.4, 37° C., substrate depletion
Source text: In particular, the human intestinal S9 fraction in vitro stability assay (HInt) and human hepatocyte in vitro liver metabolism assay (HHep) provide important information regarding the clearance and metabolic activation of these compounds. The human intestinal S9 fraction in vitro stability assay provides a surrogate measure of compound metabolism as it travels across the gut wall; compounds with low CLint values more likely to enter the portal vein and be exposed to the liver. Likewise, the human hepatocyte in vitro liver metabolism assay provides a surrogate measure of compound metabolism when exposed to liver; compounds with high CLint values are more likely to be metabolically activated. For compounds such as prodrugs that release an active species on metabolic activation, high CLint values in human hepatocytes are desirable. Active compounds released in this way inhibit PCSK9 and show improved atherosclerotic properties by increased exposure of the active metabolite in the liver.
Human Intestinal S9 Fraction In Vitro Stability Assay (Hint)
In vitro stability of test compounds in human intestinal S9 fraction was determined by a substrate depletion approach. Frozen PMSF-free human intestinal S9 (BD Gentest) was thawed on wet ice and diluted to the test concentration of 0.1 mg/mL in 100 mM potassium phosphate buffer pH 7.4. Aliquots of diluted intestinal S9 (495 μL, n=2) were added to tubes in a dry heat bath and pre-warmed for 5 min at 37° C. Test compounds were dissolved in DMSO at 30 mM, ordered from the TekCel at 10 mM, and further diluted to 0.1 mM in DMSO. To initiate the reaction, 5 μL of 0.1 mM DMSO stock solution was added to the pre-warmed intestinal S9. The final test compound concentration in the incubation was 1 μM. At each time point (0.25, 5, 10, 20, 40, and 60 min) a 50 μL sample of incubate was removed and transferred to a plate containing 200 μL acetonitrile with internal standard (2 ng/mL terfenadine). After collection of the final time point, sample plates were capped, vortexed, and centrifuged for 5 minutes at approximately 2000×g. 150 μL of supernatant was removed and transferred to a clean storage plate for direct LC-MS/MS analysis. LC-MS/MS analysis was conducted on a Triple Quad 5500 (AB Sciex) with two LC-20AD pumps and CBM-20 controller (Shimadzu) and CTC PAL autosampler (LEAP Technologies). The MS was operated in multiple reaction monitoring mode with simultaneous monitoring for test compound and internal standard. 5 μL of sample was injected on a Kinetex C18 30×2.1 mm column (Phenomenex) and eluted at 0.5 ml/min under the following conditions, where solvent A was water containing 0.1% formic acid and solvent B was acetonitrile containing 0.1% formic acid: hold initial conditions 90% A and 10% B for 0.8 min, ramp to 30% A and 70% B over 1 min, step to 5% A and 95% B over 0.05 min, hold at 5% A and 95% B for 0.15 min, return to initial conditions over 0.1 min, and hold for 0.4 min. Peak areas of test compound and internal standard were quantitated using Analyst 1.5 (AB Sciex) and the ratios of test compound peak area to internal standard peak area (area ratio) were calculated. The natural log of area ratio was plotted versus time and the portion of the curve representing the initial linear rate of test compound depletion was fit using linear regression (IDBS E-Workbook 9.4). The slope of this line was converted to half-life (t1/2=−LN2/slope). Half-life was used to calculate intrinsic apparent clearance (CLint=LN2/(t1/2*(mg protein/ml incubation))).

Row | microsomal CLint at 1 μM | Compound
1 | < 82.9 µL/min/mg | CCOC(=O)O[C@@H](C)n1nnnc1-c1c(-c2ccc(C(=O)N(c3ncccc3Cl)[C@@H]3CCCNC3)cc2F)cnn1C [Example 7, ethyl (S)-1-{5-[4-(4-{(3-chloropyridin-2-yl)[(3R)-piperidin-3-yl]carbamoyl}-2-fluorophenyl)-1-methyl-1H-pyrazol-5-yl]-1H-tetrazol-1-yl}ethyl carbonate]
2 | < 57.8 µL/min/mg | CCOC(=O)O[C@@H](C)n1nnnc1-c1c(-c2ccc(C(=O)N(c3ncccc3C)[C@@H]3CCCNC3)nc2)cnn1C [Example 9, ethyl (S)-1-{5-[1-methyl-4-(6-{(3-methylpyridin-2-yl)[(3R)-piperidin-3-yl]carbamoyl}pyridin-3-yl)-1H-pyrazol-5-yl]-1H-tetrazol-1-yl}ethyl carbonate]
3 | < 57.8 µL/min/mg | CCOC(=O)O[C@@H](C)n1nnnc1-c1c(-c2ccc(C(=O)N(c3ncccc3Cl)[C@@H]3CCCNC3)nc2)cnn1C [Example 10, ethyl (S)-1-{5-[4-(6-{(3-chloropyridin-2-yl)[(3R)-piperidin-3-yl]carbamoyl}pyridin-3-yl)-1-methyl-1H-pyrazol-5-yl]-1H-tetrazol-1-yl}ethyl carbonate]
4 | 620 µL/min/mg | CCOC(=O)O[C@H](C)n1nnnc1-c1c(-c2ccc(C(=O)N(c3ncccc3Cl)[C@@H]3CCCNC3)cc2F)cnn1C [Example 11, ethyl (R)-1-{5-[4-(4-{(3-chloropyridin-2-yl)[(3R)-piperidin-3-yl]carbamoyl}-2-fluorophenyl)-1-methyl-1H-pyrazol-5-yl]-1H-tetrazol-1-yl}ethyl carbonate]
5 | 86.9 µL/min/mg | CCOC(=O)O[C@H](C)n1nnnc1-c1c(-c2ccc(C(=O)N(c3ncccc3C)[C@@H]3CCCNC3)cc2)cnn1C [Example 5b, ethyl (R)-1-{5-[1-methyl-4-(4-{(3-methylpyridin-2-yl)[(3R)-piperidin-3-yl]carbamoyl}phenyl)-1H-pyrazol-5-yl]-1H-tetrazol-1-yl}ethyl carbonate]
6 | < 57.8 µL/min/mg | CCOC(=O)O[C@@H](C)n1nnnc1-c1c(-c2ccc(C(=O)N(c3ncccc3Cl)[C@@H]3CCCNC3)cc2)cnn1C [Example 6, ethyl (S)-1-{5-[1-methyl-4-(4-{(3-chloropyridin-2-yl)[(3R)-piperidin-3-yl]carbamoyl}phenyl)-1H-pyrazol-5-yl]-1H-tetrazol-1-yl}ethyl carbonate]
7 | < 57.8 µL/min/mg | CCOC(=O)O[C@@H](C)n1nnnc1-c1c(-c2ccc(C(=O)N(c3ncccc3C)[C@@H]3CCCNC3)cc2)cnn1C [Example 5a, ethyl (S)-1-{5-[1-methyl-4-(4-{(3-methylpyridin-2-yl)[(3R)-piperidin-3-yl]carbamoyl}phenyl)-1H-pyrazol-5-yl]-1H-tetrazol-1-yl}ethyl carbonate]
8 | 116 µL/min/mg | CCOC(=O)O[C@@H](C)n1nnnc1-c1c(-c2ccc(C(=O)N(c3ncccc3C)[C@@H]3CCCNC3)cc2F)cnn1C [Example 8, ethyl (S)-1-{5-[4-(4-{(3-methylpyridin-2-yl)[(3R)-piperidin-3-yl]carbamoyl}-2-fluorophenyl)-1-methyl-1H-pyrazol-5-yl]-1H-tetrazol-1-yl}ethyl carbonate]
